Measured values published in patent publication US20190231771A1, “METHODS FOR TREATMENT AND PREVENTION OF OPIOID INDUCED CONSTIPATION USING ORAL COMPOSITIONS OF METHYLNALTREXONE” (Salix Pharmaceuticals, Ltd., priority 2011, published 2019).

Experiments:
Type in all cases: in vivo, human
[1] = Study C: single and multiple dose pharmacokinetics of MNTX and metabolites, MNTX 450 mg PO x 7 days; details: for t1/2 / AUC0-24 / AUCinf / Cmax / Tmax / Metabolite/MNTX Ratio / R (PO), accumulation factor: 450 mg Tablets oral; for Metabolite/MNTX Ratio: 100*(Metabolite AUC24/MNTX AUC24); for R (PO), accumulation factor: AUC0-24 on Day 7/AUC0-24 on Day 1; for metabolite to MNTX ratios following oral administration: day and AUC basis not stated
Protocol: (§1) Presented herein is a clinical pharmacokinetics study, Study C, as well as Studies A and B. Study A investigated the single and multiple dose pharmacokinetics of methylnaltrexone (MNTX) and its metabolites (M2: methylnaltrexone sulfate; M4: 6α-methylnaltrexol; and M5: 6β-methylnaltrexol) following the subcutaneous administration of 12 mg methylnaltrexone. In Study B, the single and multiple dose pharmacokinetics of methylnaltrexone (MNTX) and its metabolites (M2, M4, and M5) were examined following a 20-minute short intravenous infusion of 24 mg of methylnaltrexone (MNTX).
In addition, the urinary elimination of MNTX was characterized.
(§2) Pharmacokinetic parameters included Cmax, AUCt, AUCinf, tmax, t1/2, % Re24, accumulation factor (R) as defined below and metabolite/parent drug ratio.
(§3) R=Accumulation Factor(based on AUC0-24(ng·h/mL):Day 7 AUC AUC0-24/Day 1 AUC0-24
(§4) Metabolite-Parent Drug ratio(based on ng·h/mL)(%)=100*(Metabolite AUC24/MNTX AUC24)
(§5) Note: AUCinf was used in place of AUC AUC0-24 for R and Metabolite-Parent Drug ratio computations following IV administration.

[2] = Study B: single and multiple dose pharmacokinetics after 20-minute intravenous infusion of 24 mg methylnaltrexone; details: 24 mg IV infusion; for t1/2 / AUC0-6: day not given; for AUC0-6: mean; for Metabolite ÷ MNTX Ratio / R (IV), accumulation factor: AUCinf used
Protocol: as §1, §2, §3, §4, §5

[3] = Study A: single and multiple dose pharmacokinetics after subcutaneous 12 mg methylnaltrexone; details: 12 mg SC Injection; for t1/2: day not given, harmonic mean; for R (SC), accumulation factor: AUC0-24 on Day 7/AUC0-24 on Day 1
Protocol: as §1, §2, §3, §4, §5

Compound	t1/2 ([1]; Day 1, harmonic mean) [h]	AUC0-24 ([1]; Day 1, mean) [ng·h/mL]	AUCinf ([1]; Day 1, mean) [ng·h/mL]	Cmax ([1]; Day 1, mean) [ng/mL]	Tmax ([1]; Day 1, median) [h]	Metabolite/MNTX Ratio ([1]; Day 1) [%]	t1/2 ([1]; Day 7, harmonic mean) [h]	AUC0-24 ([1]; Day 7, mean) [ng·h/mL]	AUCinf ([1]; Day 7, mean) [ng·h/mL]	Cmax ([1]; Day 7, mean) [ng/mL]	Tmax ([1]; Day 7, median) [h]	Metabolite/MNTX Ratio ([1]; Day 7) [%]	R (PO), accumulation factor [1]	metabolite to MNTX ratios following oral administration [1] [%]	AUCinf ([2]; Day 1, mean) [ng·h/mL]	Cmax ([2]; Day 1, mean) [ng/mL]	AUCinf ([2]; Day 7, mean) [ng·h/mL]	Cmax ([2]; Day 7, mean) [ng/mL]	t1/2 [2] [h]	AUC0-6 [2] [ng·h/mL]	other results
C[N@+]1(CC2CC2)CC[C@]23c4c5ccc(O)c4O[C@H]2[C@@H](O)CC[C@@]3(O)[C@H]1C5 [M4, 6α-methylnaltrexol]	17.48	79.73	124.23	9.01	2.0003	29.70	31.85	119.61	221.13	10.77	2.0007	38.50	1.62	54.21	61.30	11.0	54.0	18.10	12.28	28.8	Metabolite ÷ MNTX Ratio [2]: 14.90%; R (IV), accumulation factor [2]: 2.08; Metabolite/MNTX Ratio ([3]; Day 1): 15.81%; AUC0-24 ([3]; Day 1, mean): 34.66 ng·h/mL; AUCinf ([3]; Day 1, mean): 38.3 ng·h/mL; Cmax ([3]; Day 1, mean): 4.64 ng/mL; Tmax ([3]; Day 1, median): 1.0 h; Metabolite/MNTX Ratio ([3]; Day 7): 18.75%; AUC0-24 ([3]; Day 7, mean): 41.86 ng·h/mL; AUCinf ([3]; Day 7, mean): 41.9 ng·h/mL; Cmax ([3]; Day 7, mean): 4.33 ng/mL; Tmax ([3]; Day 7, median): 1.0 h; t1/2 [3]: 7.59 h; R (SC), accumulation factor [3]: 1.25
C[N@+]1(CC2CC2)CC[C@]23c4c5ccc(O)c4O[C@H]2[C@H](O)CC[C@@]3(O)[C@H]1C5 [M5, 6β-methylnaltrexol]	18.40	40.84	73.61	3.48	3.13	15.10	28.65	66.33	120.87	4.89	2.69	21.41	1.76	29.78	35.10	3.44	30.0	8.71	12.3	12.3	Metabolite ÷ MNTX Ratio [2]: 8.69%; R (IV), accumulation factor [2]: 2.91; Metabolite/MNTX Ratio ([3]; Day 1): 6.58%; AUC0-24 ([3]; Day 1, mean): 14.41 ng·h/mL; AUCinf ([3]; Day 1, mean): 18.5 ng·h/mL; Cmax ([3]; Day 1, mean): 1.17 ng/mL; Tmax ([3]; Day 1, median): 2.0 h; Metabolite/MNTX Ratio ([3]; Day 7): 8.72%; AUC0-24 ([3]; Day 7, mean): 19.51 ng·h/mL; AUCinf ([3]; Day 7, mean): 19.5 ng·h/mL; Cmax ([3]; Day 7, mean): 1.42 ng/mL; Tmax ([3]; Day 7, median): 2.0 h; t1/2 [3]: 8.13 h; R (SC), accumulation factor [3]: 1.42
methylnaltrexone sulfate [M2]	7.19	188.63	216.89	17.15	4.02	72.69	13.87	243.72	320.51	21.00	4.02	79.11	1.30	81.0	162	16.6	176	37.70	5.70	72.3	Metabolite ÷ MNTX Ratio [2]: 46.60%; R (IV), accumulation factor [2]: 2.61; Metabolite/MNTX Ratio ([3]; Day 1): 28.71%; AUC0-24 ([3]; Day 1, mean): 61.34 ng·h/mL; AUCinf ([3]; Day 1, mean): 71.9 ng·h/mL; Cmax ([3]; Day 1, mean): 6.34 ng/mL; Tmax ([3]; Day 1, median): 4.00 h; Metabolite/MNTX Ratio ([3]; Day 7): 29.30%; AUC0-24 ([3]; Day 7, mean): 66.3 ng·h/mL; AUCinf ([3]; Day 7, mean): 66.3 ng·h/mL; Cmax ([3]; Day 7, mean): 5.70 ng/mL; Tmax ([3]; Day 7, median): 4.00 h; t1/2 [3]: 5.57 h; R (SC), accumulation factor [3]: 1.13
